Measurements taken from patent US8865967B2 (priority 2010, dated 2014).

Columns and labels:
[1] = tested on: Colletotrichum graminicola (CGR; isolate Carroll-IA-99); format: cell-based; conditions: for Antifungal activity (IC50 in ppm) against C. graminicola under high salt conditions: Table 2; for IC50 (ppm) High Salt Cgr: high salt: 1/2x liquid media plus 1 mM calcium chloride, 50 mM potassium chloride, Table 1; for IC50 (ppm) Low Salt Cgr: low salt: 1/8x Czapek-Dox broth plus 0.25 mM calcium chloride, 12.5 mM potassium chloride
[2] = tested on: Fusarium graminearum (FGR; isolate 73B ISU); format: cell-based; conditions: for IC50 (ppm) High Salt Fgr: high salt: 1/2x liquid media plus 1 mM calcium chloride, 50 mM potassium chloride; for IC50 (ppm) Low Salt Fgr: low salt: 1/8x potato dextrose broth plus 0.25 mM calcium chloride, 12.5 mM potassium chloride
[3] = tested on: Fusarium verticillioides (FVE); format: cell-based
[4] = tested on: Diplodia maydis (DMA); format: cell-based; conditions: high salt: 1/2x liquid media plus 1 mM calcium chloride, 50 mM potassium chloride
[5] = tested on: C. graminicola; assay: Invasion of leaf sheaths of transgenic maize by C. graminicola; format: in vivo, Colletotrichum graminicola; conditions: greenhouse, T0 V5-stage maize
Method: The leaf sheaths of leaf 4 or 5 of T0 plants at the V5 stage were inoculated with 50 μL of 5×10^6 spores/mL after wounding the leaf sheath on both sides of the midrib about half way between edge and midrib with a small screwdriver. The leaf sheath was covered with plastic wrap for 5 days. Nine days after inoculation the area of lesions was measured.

Pp-PDF1-1C-7A4: Pp-PDF1 variant from first shuffling round (RVCEKPSKFFKGLCGSDRDCTNACRKEGLATGECQSKGFFNSVCVCKKPC; Synthetic sequence obtained from DNA shuffling of a plant sequence.)
Antifungal activity (IC50 in ppm) against C. graminicola under high salt conditions [1]: 5 ppm | IC50 (ppm) High Salt Cgr [1]: 5 ppm | IC50 (ppm) Low Salt Cgr [1]: 0.1 ppm | IC50 (ppm) High Salt Fgr [2]: 20 ppm | IC50 (ppm) Low Salt Fgr [2]: 4.7 ppm | IC50 (ppm) High Salt Fve [3]: >200 ppm | IC50 (ppm) High Salt Dma [4]: 50 ppm | relation of protein level to disease development ([5]; leaf sheath invasion by CGR): correlated inversely with disease development | invasion of leaf sheaths by CGR compared to empty vector controls ([5]; protein accumulated in endoplasmic reticulum, two transformation constructs): significantly improved events

Pp-PDF1-1C-7C4: Pp-PDF1 variant from first shuffling round (RVCTKPSKFFKGMCVSDNDCTHACRKEGLATGFCQSKGFFNSVCVCTKPC; Synthetic sequence obtained from DNA shuffling of a plant sequence.)
Antifungal activity (IC50 in ppm) against C. graminicola under high salt conditions [1]: 5 ppm | IC50 (ppm) High Salt Cgr [1]: 3 ppm | IC50 (ppm) Low Salt Cgr [1]: 0.14 ppm | IC50 (ppm) High Salt Fgr [2]: 20 ppm | IC50 (ppm) Low Salt Fgr [2]: 4.7 ppm | IC50 (ppm) High Salt Fve [3]: >200 ppm | IC50 (ppm) High Salt Dma [4]: 25 ppm
